In ChEMBL document CHEMBL1121424, “Orally active cephalosporins and penicillins” (J Med Chem, 1980):
In brackets after ≈: the same amount, converted by molar mass.

Key:
Enterococcus faecalis = test: Tested for inhibition of visible growth of Streptococcus faecalis; assay type: functional
Staphylococcus aureus [1] = test: Tested for inhibition of visible growth of Staphylococcus aureus, benzyl-penicillin sensitive; assay type: functional
Escherichia coli [2] = test: Tested for the antimicrobial activity against Escherichia coli in mice; assay type: functional
[3] = (§1) Tested for the antimicrobial activity against Salmonella schottmuelleri in mice; assay type: functional
Klebsiella pneumoniae = test: Tested for inhibition of visible growth of Klebsiella pneumoniae; assay type: functional
Streptococcus pneumoniae [4] = test: (§2) Tested for the antimicrobial activity against Streptococcus pneumoniae in mice; assay type: functional
Proteus mirabilis = test: Tested for inhibition of visible growth of Proteus mirabilis; assay type: functional
Klebsiella aerogenes = test: Tested for inhibition of visible growth of Enterobacter aerogenes; assay type: functional
Enterobacter cloacae = test: Tested for inhibition of visible growth of Enterobacter cloacae; assay type: functional
Streptococcus pyogenes [5] = test: (§3) Tested for the antimicrobial activity against Streptococcus pyogenes in mice; assay type: functional
Streptococcus pyogenes [6] = test: Tested for inhibition of visible growth of Streptococcus pyogenes; assay type: functional
Streptococcus pneumoniae [7] = test: as §2; assay type: functional; remark: listed apart in the source
[8] = Tested for the peak time in mice following 12.5 mg/kg oral dose of cephalosporin; assay type: ADME, organism-based; design: dose 12.5 mg/kg, route oral; details: mouse, in vivo, read-out: Peak time (converted)
Streptococcus pneumoniae [9] = test: Tested for inhibition of visible growth of Streptococcus pneumoniae; assay type: functional
Streptococcus pyogenes [10] = test: as §3; assay type: functional; remark: listed apart in the source
Staphylococcus aureus [11] = test: Tested for the antimicrobial activity against Staphylococcus aureus, benzyl-penicillin sensitive in mice, perorally; assay type: functional; details: po
Staphylococcus aureus [12] = test: Tested for the antimicrobial activity against Staphylococcus aureus; assay type: functional
[13] = as §1; assay type: functional; remark: listed apart in the source
[14] = Tested for inhibition of visible growth of Salmonella schottmuelleri; assay type: functional
Escherichia coli [15] = test: Tested for the antimicrobial activity against Escherichia coli in mice perorally; assay type: functional; details: po
Escherichia coli [16] = test: Tested for inhibition of visible growth of Escherichia coli; assay type: functional
Staphylococcus aureus [17] = test: Tested for inhibition of visible growth of Staphylococcus aureus; assay type: functional
Mus musculus = species: Mus musculus; test: Tested for the antimicrobial activity against Staphylococcus aureus, benzyl-penicillin resistant in mice, perorally; assay type: functional; details: po
[18] = Tested for the peak time in mice following 40 mg/kg oral dose of cephalosporin; assay type: ADME, organism-based; design: dose 40 mg/kg, route oral; details: mouse, in vivo, read-out: Peak time (converted)

SMILES | MIC (Enterococcus faecalis) [µg/mL] | MIC (Staphylococcus aureus [1]) [µg/mL] | ED50 (Escherichia coli [2]) [mg/kg] | ED50 [3] [mg/kg] | MIC (Klebsiella pneumoniae) [µg/mL] | ED50 (Streptococcus pneumoniae [4]) [mg/kg] | MIC (Proteus mirabilis) [µg/mL] | MIC (Klebsiella aerogenes) [µg/mL] | MIC (Enterobacter cloacae) [µg/mL] | ED50 (Streptococcus pyogenes [5]) [mg/kg] | MIC (Streptococcus pyogenes [6]) [µg/mL] | ED50 (Streptococcus pneumoniae [7]) [mg/kg] | MIC (Streptococcus pneumoniae [9]) [µg/mL] | ED50 (Streptococcus pyogenes [10]) [mg/kg] | ED50 (Staphylococcus aureus [11]) [mg/kg] | ED50 (Staphylococcus aureus [12]) [mg/kg] | ED50 [13] [mg/kg] | MIC [14] [µg/mL] | ED50 (Escherichia coli [15]) [mg/kg] | MIC (Escherichia coli [16]) [µg/mL] | also measured
N[C@@H](C(=O)NC1C(=O)N2C(C(=O)O)=C(CSc3c[nH]nn3)CSC12)c1ccc2c(c1)OCO2 (stereo not given in full) | 50 (≈ 102 µM) | 0.4 (≈ 0.815 µM) | 9.1 | 8.1 | 3.1 (≈ 6.32 µM) | 4.1 | 50 (≈ 102 µM) | 50 (≈ 102 µM) | 50 (≈ 102 µM) | 0.32 | 0.2 (≈ 0.408 µM) | 5 | 0.2 (≈ 0.408 µM) | 0.41 | 0.7 | 0.13 | 12.5 | 1.6 (≈ 3.26 µM) | 24.8 | 12.5 (≈ 25.5 µM) | Tmax [8]: 20 min; MIC (Staphylococcus aureus [17]): 0.8 µg/mL (≈ 1.63 µM)
CC1=C(C(=O)O)N2C(=O)C(NC(=O)[C@H](N)c3ccc4c(c3)OCO4)C2SC1 (stereo not given in full) | > 100 | 0.4 (≈ 1.02 µM) | 15 | 33 | 25 (≈ 63.9 µM) | 26 | > 100 | > 100 | > 100 | 1.4 | 0.8 (≈ 2.04 µM) | 19 | 1.6 (≈ 4.09 µM) | 1 | 0.61 | 0.45 | 37 | 12.5 (≈ 31.9 µM) | 28 | 25 (≈ 63.9 µM) | ED50 (Mus musculus): 3.1 mg/kg; Tmax [18]: 10 min; MIC (Staphylococcus aureus [17]): 3.1 µg/mL (≈ 7.92 µM)
